Data: publication doi:10.1101/2021.02.13.431112v1 (bioRxiv, 2021)

How the values were obtained:
[1] = system: fibroblasts cells; experiment: Confocal uptake of NBD-Def1; assay type: cell-based; conditions: confocal microscopy, 5 times higher dose (200 mg/mL)
[2] = system: SKOV3 cells; experiment: Confocal uptake of NBD-Def1; assay type: cell-based; conditions: confocal microscopy, 20, 6.6 or 2.2 ug/ml, 15 min, 37C, N=4
[3] = system: MDA-MB-231R cells; experiment: Confocal uptake of NBD-Def1; assay type: cell-based; conditions: confocal microscopy, 20, 6.6 or 2.2 ug/ml, 15 min, 37C, N=4
[4] = system: MCF-10A normal epithelial breast cells; experiment: Confocal uptake of NBD-Def1; assay type: cell-based; conditions: confocal microscopy, 5 times higher dose (200 mg/mL)
[5] = system: induced pluripotent stem cell derived cardiomyocytes (iPSC); experiment: MTT viability assay, IC-50; assay type: cell-based, human
[6] = 15N NMR chemical shift mapping of Def1 binding to GlcCer; conditions: 15N-labeled Def1, chemical shift perturbation, T1, 15N-1H NOE; N=3
[7] = system: MCF-10A Epithelial Cells; experiment: MTT viability assay, IC-50; assay type: cell-based; conditions: normal epithelial breast cells, 24 h
[8] = system: Bone Marrow Cells MSC-001F; experiment: Viability assay, IC-50; assay type: cell-based; conditions: normal cells
[9] = system: ASK1; experiment: Immunoblot of ASK1 Thr845 phosphorylation; assay type: cell-based; conditions: 50 μM, 60 minutes, MDA-MB-231 cells, vs solvent control and NAC control, N=4
[10] = system: MCF-7R cells; experiment: Ceramide release by LC-MS/MS; assay type: cell-based; conditions: 20 μM, 6 hrs, Doxorubicin resistant MCF-7R cells, n=4, preliminary
[11] = molecular target: T1, thioredoxin (Trx) (Homo sapiens, UniProt P10599); experiment: Thioredoxin redox Western blot; assay type: cell-based; conditions: 20 μM Def1, Doxorubicin resistant MDA-MB-231-R cells, N=4
T1 sequence (P10599 1-105): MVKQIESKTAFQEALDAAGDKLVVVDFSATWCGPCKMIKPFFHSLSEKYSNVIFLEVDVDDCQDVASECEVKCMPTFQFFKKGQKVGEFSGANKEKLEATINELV

[12] = system: MCF-7; conditions: read-out: IC-50, MCF-7; unit printed only in neighbouring columns; ref 39b; cited from earlier work
[13] = system: MDA-MB-231; conditions: read-out: IC-50, MDA-MB-231; unit printed only in neighbouring columns; ref 39b; cited from earlier work
[14] = system: BT-549; conditions: read-out: IC-50, BT-549; unit printed only in neighbouring columns; ref 39b; cited from earlier work

Compound: 6-((N-(7-nitrobenz-2-oxa-1, 3-diazol-4-yl) amino) hexanoyl (NBD)-Def1 [NBD-Def1]
- uptake, fibroblasts [1]: did not pick up
- uptake, SKOV3 [2]: concentration dependent uptake
- uptake, MDA-MB-231R [3]: concentration dependent uptake
- uptake, normal epithelial breast cells MCF-10A [4]: did not pick up

Compound: COc1cccc2c1C(=O)c1c(O)c3c(c(O)c1C2=O)C[C@@](O)(C(=O)CO)C[C@@H]3O[C@H]1C[C@H](N)[C@H](O)[C@H](C)O1 [Doxorubicin, reference compound]
- more potency for cardiomyocytes and bone marrow cells ([5]; in contrast to Def1): 10-15 times

Compound: Medicago sativa Defensin 1 [Def1]
- binding to GlcCer [6]: binds to GlcCer at two regions
- IC-50, MCF-10A Epithelial Cells [7]: > 200 µM
- IC-50, Bone Marrow Cells MSC-001F [8]: > 150 µM
- phosphorylation of Thr845 residue of ASK1 [9]: significant increase
- IC-50, iPSC (induced pluripotent stem cell derived cardiomyocytes) ([5]; human iPSC cardiomyocytes, MTT, 24 h): > 180 µM
- accumulation of ceramide [10]: enhanced accumulation of ceramide
- oxidation of Trx (new band at 28 KDa) [11]: oxidation of Trx

Compound: hBD-1: Human Beta Defensin (hBD-1) with three S-S bonds (DHYNCVSSGGQCLYSACPIFTKIQGTCYRGKAKCCK; Beta-defensin 1; UniProt P60022 33-68, looked up)
- IC50 [12]: 21 µM
- IC50 [13]: 18 µM
- IC50 [14]: 17 µM
